# Results reported in patent US9517243B2, “Beta-mannosylceramide and stimulation of NKT cell anti-tumor immunity” (The United States of America, as represented by the …, priority 2010, dated 2016).
# Tests used:
# CT26 lung metastasis = test: In vivo lung metastasis assay, CT26 colon carcinoma; design: species or system BALB/c mice
# Method: In vivo lung metastasis assay. 5×10^5 CT26 cells in 0.2 ml PBS were injected i.v. into the tail vein. Glycolipid or vehicle control (0.00025% Tween 20) was injected i.p. (in 0.2 ml PBS) within one hour after tumor challenge. Mice were sacrificed 12-16 days after tumor challenge, and lungs were stained and fixed and metastases were enumerated as previously described (Park, J. M., et al., International J. of Cancer, 114:80-87 (2004)). The same protocol was used for the B16F10 cell line, except that lungs were perfused with PBS instead of ink before removal.
# For CD8^+T and NK cell depletion, mice were treated with anti-CD8 (200 μg/injection), anti-asialo GM1 (25 μl/injection), or control antibodies 1 day prior to tumor challenge, the day of challenge, and 5 and 10 days following tumor challenge. CD8^+T and NK cell depletion of >90% was confirmed by flow cytometric staining for CD8 (clone 53-6.7, BD Biosciences, Rockville, Md.) and pan-NK cell marker (clone DX5, eBioscience, San Diego, Calif.) at the conclusion of the experiment. For Gr-1^+ cell depletion, mice were injected i.p. with 100, 50, or 1 μg anti-Gr-1 antibody, 16 and 40 hours after tumor challenge. CD11b^+Gr-1^high cell depletion of >99% and CD11b^+Gr-1^intermediate cell depletion of >80% by 100 μg of anti-Gr-1 antibodies, was confirmed by flow cytometric staining for CD11b (clone M1/70, eBioscience), Gr-1 (clone RB6-8C5, BD Biosciences), Ly-6C (clone AL-21, BD Biosciences) and Ly6G. (clone 1A8, BD Biosciences). Where indicated, mice received 0.2 mg L-NAME or D-NAME i.p. twice per day on the day of tumor challenge, the day after tumor challenge, and once daily for 2 weeks after tumor injection. Blockade of TNF-α was achieved by administration of 100 μg of etanercept every other day, beginning immediately following tumor challenge, per the method of Fichtner-Feigl, S., et al., Cancer Res., 68:3467-3475 (2008). For PPARγ inhibition, mice were treated 0.15 mg/ml GW9662 (200 μL i.p.) or vehicle control (0.5% DMSO in PBS) immediately following tumor challenge, and then 30 minutes prior to glycolipid administration, via the method of Coste, A., et al., J. Immunol., 180:4939-4947 (2008).
# [1] = system: 24.9.E NKT cell hybridoma; test: Plate-bound mCD1d hybridoma stimulation assay, 24.9.E; type: cell-based, mouse
# Method: Plate-bound mCD1d hybridoma stimulation assay. Protocol was modified from that of Gumperz et al. (Gumperz, J. E., et al., Immunity, 12(2):211-221 (2000)). mCD1d dimer/Ig fusion protein (BD Biosciences) was incubated with the indicated concentrations of glycolipid in pH 5 sodium acetate buffer containing 0.01% Tween20 and 45 μg/ml saposin C (provided by Nico Tjandra and Motoshi Suzuki [both from National Heart, Lung, and Blood Institute, NIH, Bethesda, Md., USA]) overnight at 37° C. The mCD1d dimers loaded with glycolipid were loaded onto 96-well Protein G Plates (Pierce, Rockford, Ill.) and incubated for 48 hours at 37° C. The plates were washed with PBS and tissue culture media to remove anything not coated on the plates. 1×10^5 24.9. E or DN32.D3 iNKT hybridoma cells were added to each well and incubated at 37° C. and 5% CO2 for 24 hours. Supernatants were collected and analyzed for IL-2 by ELISA.
smiles,measurement,setting,value
"CCCCCCCCCCCCCCCCCCCCCCCCCC(=O)N[C@@H](COC1OC(CO)C(O)C(O)C1O)[C@H](O)[C@H](O)CCCCCCCCCCCCCC (stereo partly drawn) [β-ManCer, 2-hexacosanoylamino-1-O-β-mannopyranosyl-D-ribo-1,3,4-octadecanetriol]","Effect of TNF-α blockade (TNF-αR-Fc, etanercept) on protection","CT26 lung metastasis; 100 μg etanercept every other day, FIG. 10C",completely reversed the protection
same,Effect of PPARγ inhibition with GW 9662 on induced protection,"CT26 lung metastasis; 0.15 mg/ml GW9662 200 μL i.p., 50 pmoles glycolipid, FIG. 2C",no effect
same,Potency of tumor protection relative to α-ManCer and β-GalCer,"CT26 lung metastasis; CT26 lung metastasis, 50 vs 5,000 pmoles",100 fold
same,Fewer lung nodules compared to vehicle control mice,"CT26 lung metastasis; IFN-γ knockout mice, 50 pmoles, p=0.0079, FIG. 9A",50%
same,Protection in IFN-γ−/− mice when NOS was inhibited,"CT26 lung metastasis; IFN-γ−/− mice, L-NAME, FIG. 10B",completely lost
same,Tumor protection in Jα18KO mice (lack only iNKT cells),"CT26 lung metastasis; Jα18KO BALB/c mice, FIG. 2B",All protection was lost
same,Protection against CT26 lung metastasis,"CT26 lung metastasis; WT BALB/c, glycolipid i.p. within one hour after tumor challenge, β-ManCer 50 pmoles, FIG. 2A",strong protection
same,Effect of NOS inhibition (L-NAME vs D-NAME) on tumor protection,"CT26 lung metastasis; WT mice, 50 pmoles glycolipid, 0.2 mg L-NAME i.p., FIG. 6, 10A",significantly inhibited protection
same,Effect of depletion of Gr-1+ cells on tumor protection,"CT26 lung metastasis; anti-Gr-1 antibodies, FIG. 10D",no effect
same,Rank order of tumor protection,"CT26 lung metastasis; dose of 50 pmoles, FIG. 2D",similarly protective
same,Increase in IL-2 production over unloaded mCD1d,[1]; 24.9.E,25 fold
same,"IL-2 production, glycolipid-loaded mCD1d dimers","[1]; 24.9.E, 24 hours, no APCs, FIG. 5",able to induce IL-2 production
same,"IL-2 production, soluble glycolipid in the absence of CD1d","[1]; 24.9.E, FIG. 5",failed to induce IL-2 production above background
same,"IL-2 production, difference (less) versus α-GalCer",[1]; stated for the 24.9.E and DN32.D3 hybridomas together,10- to 50 fold
